The values below are quoted from earlier work in the PKSmart pharmacokinetics tables (Seal et al. 2025).

This data set is described as follows: Lombardo, Berellini, Obach 2018, Drug Metab Dispos 46:1466, doi 10.1124/dmd.118.082966. As to conditions: human; for MRT / Vd / clearance / half-life: in vivo, iv; for fraction unbound: plasma.

For `Nc1nc2c(ncn2COC(CO)CO)c(=O)[nH]1`, the MRT (usually the average time that molecules of a dose stay in the body) is 3.7 h; the Vd (in general, a proportionality between amount in the body and measured concentration, not a real space) was 1 L/kg; the clearance (commonly a measure of how efficiently the substance is removed, as volume per time) was 4.6 mL/min/kg; the half-life (commonly the time needed for the level to fall by half in the phase considered) is 3.7 h.

Take `CCn1cc(C(=O)O)c(=O)c2cc(F)c(N3CCNCC3)cc21`: the mean residence time MRT is 4.5 h, the Vd is 1.88 L/kg, the clearance was 6.96 mL/min/kg and the half-life was 4.45 h. Besides, the free fraction (fraction unbound) (usually the share of the substance not bound to proteins or other matrix) is 0.13.

Regarding `O=c1ccc2ncc(=O)n3c2n1C[C@H]3CN1CCC(NCc2cc3c(cn2)OCCC3)CC1`, the MRT was 4.86 h, the distribution volume (Vd) was 2.7 L/kg, the clearance is 9.23 mL/min/kg and the half-life was 12.6 h.

In the case of `CC(C)C1C(=O)NC(CCCNC(=N)N)C(=O)NCC(=O)NC(CC(=O)O)C(=O)NC(Cc2ccccc2)C(=O)N1C` (stereo unspecified), the mean residence time MRT was 3.67 h, the distribution volume (Vd) was 0.26 L/kg, the clearance was 1.18 mL/min/kg and the half-life was 3.6 h.

With `CC(=O)Nc1c(I)c(C(=O)O)c(I)c(N(C)C(C)=O)c1I`, the MRT was 1 h, the distribution volume (Vd) was 0.17 L/kg, the clearance was 2.7 mL/min/kg and the half-life was 1.3 h. Also, the fraction unbound is 1.

With `CN(C)CCN(Cc1cccs1)c1ccccn1`, the MRT was 2 h, the Vd was 3.3 L/kg, the clearance is 28 mL/min/kg and the half-life was 1.6 h.

Consider `CSCC(NC(=O)COc1cccc2cnccc12)C(=O)NC(Cc1ccccc1)C(O)C(=O)N1CSCC1C(=O)NC(C)(C)C` (stereo unspecified), for which the MRT was 0.17 h, the Vd is 0.11 L/kg, the clearance was 10.5 mL/min/kg and the half-life is 0.44 h.

For `CO/N=C1\CN(c2nc3c(cc2F)c(=O)c(C(=O)O)cn3C2CC2)CC1CN` (stereo unspecified), the mean residence time MRT is 8.1 h, the Vd is 3.52 L/kg, the clearance is 7.2 mL/min/kg and the half-life is 8.3 h. Also, the fraction unbound is 0.3.

With `CON=C(C(=O)NC1C(=O)N2C(C(=O)O)=C(CSc3nc(=O)c(O)nn3C)CS[C@H]12)c1csc(N)n1` (stereo partly specified), the mean residence time (MRT) is 9.6 h, the Vd was 0.12 L/kg, the clearance was 0.22 mL/min/kg and the half-life was 7.6 h. The fraction unbound is 0.1.

In the case of `CC(CCc1ccccc1)NCC(O)c1ccc(O)c(C(N)=O)c1` (stereo unspecified), the clearance was 23 mL/min/kg and the half-life is 4.4 h.

As for `CCN[C@@H](C)Cc1cccc(C(F)(F)F)c1`, the MRT was 18 h, the Vd is 11 L/kg, the clearance is 11 mL/min/kg and the half-life is 14 h. Besides, the unbound share (fraction unbound) is 0.66.

Take `CCc1c(O)cc(O)c(C(=O)c2ccc(OCCN3CCOCC3)c(OC)c2)c1CC(=O)N(CCOC)CCOC`: the MRT is 3.21 h, the Vd is 1.32 L/kg, the clearance was 6.87 mL/min/kg and the half-life is 5.94 h.

`C=C1C[C@@H]2CC[C@@]34C[C@H]5O[C@H]6[C@@H](O3)[C@H]3O[C@H](CC[C@@H]3O[C@H]6[C@H]5O4)CC(=O)O[C@@H]3[C@@H](OC)[C@@H](C[C@H](O)CN)O[C@H]3C[C@H]3O[C@@H](CC[C@@H]1O2)C[C@@H](C)C3=C`: the MRT was 32.5 h, the Vd is 1.46 L/kg, the clearance is 0.75 mL/min/kg and the half-life was 37.8 h. Besides, the fraction unbound is 0.43.

For the molecule `C#CCC(Cc1cnc2nc(N)nc(N)c2n1)c1ccc(C(=O)NC(CCC(=O)O)C(=O)O)cc1` (stereo unspecified), the mean residence time (MRT) was 3.7 h, the Vd is 1.01 L/kg, the clearance was 4.35 mL/min/kg and the half-life was 15 h. Further, the fraction unbound was 0.33.

As for `CCN(CC)C(=O)N[C@H]1C=C2c3cccc4[nH]cc(c34)C[C@H]2N(C)C1`, the MRT is 2.17 h, the Vd is 1.73 L/kg, the clearance is 13.3 mL/min/kg and the half-life is 1.8 h.

Turning to `CC[C@]1(O)C[C@H]2CN(CCc3c([nH]c4ccccc34)[C@@](C(=O)OC)(c3cc4c(cc3OC)N(C)[C@H]3[C@@](O)(C(N)=O)[C@H](O)[C@]5(CC)C=CCN6CC[C@]43[C@@H]65)C2)C1`, the mean residence time (MRT) was 38 h, the Vd was 5 L/kg, the clearance is 2.2 mL/min/kg and the half-life is 35 h.

`CC=CC1=C(C(=O)O)N2C(=O)C(NC(=O)C(N)c3ccc(O)cc3)[C@H]2SC1` (stereo partly specified): the mean residence time MRT was 1.2 h, the Vd was 0.21 L/kg, the clearance was 2.9 mL/min/kg and the half-life was 1.2 h.

Regarding `CCOC(=O)Nc1ccc(NCc2ccc(F)cc2)cc1N`, the mean residence time MRT was 5 h, the Vd was 2.5 L/kg, the clearance was 8.3 mL/min/kg and the half-life was 9 h. Moreover, the fraction unbound is 0.2.

On to `CS(=O)(=O)OCCN(CCBr)c1c(C(=O)NCCOP(=O)(O)O)cc([N+](=O)[O-])cc1[N+](=O)[O-]`, for which the mean residence time MRT was 0.32 h, the Vd is 0.86 L/kg, the clearance was 44.8 mL/min/kg and the half-life is 0.1 h.

Consider `CC(CN1c2ccccc2Sc2ccccc21)N(C)C` (stereo unspecified), for which the fraction unbound is 0.09.

For `Cc1cc(=O)n(-c2ccccc2)[nH]1`, the mean residence time (MRT) is 2.65 h, the Vd is 0.23 L/kg, the clearance was 1.42 mL/min/kg and the half-life was 2.36 h. The fraction unbound was 0.89.

Regarding `COc1cccc2c1C(=O)c1c(O)c3c(c(O)c1C2=O)C[C@@](O)(C(=O)CO)C[C@@H]3O[C@@H]1C[C@H](N)[C@H](O[C@@H]2CCCCO2)[C@H](C)O1`, the mean residence time MRT was 12.5 h, the Vd is 43.2 L/kg, the clearance was 57.7 mL/min/kg and the half-life is 11.1 h.

`O=C(NCCN1CCOCC1)c1ccc(Cl)cc1`: the MRT was 1.8 h, the Vd is 1.1 L/kg, the clearance was 10 mL/min/kg and the half-life is 1.5 h.

Take `CNC1=Nc2ccc(Cl)cc2C(c2ccccc2)=[N+](O)C1`: the mean residence time MRT was 11 h, the volume of distribution (Vd) was 0.25 L/kg and the half-life was 8.3 h.

Consider `O=P1(NCCCl)OCCCN1CCCl` (stereo unspecified), for which the mean residence time (MRT) is 9.4 h, the volume of distribution (Vd) was 0.62 L/kg, the clearance was 1.1 mL/min/kg and the half-life was 6.6 h.

In the case of `CC(C)(C(=O)O)c1ccc(C(=O)CCCN2CCC(OC(c3ccccc3)c3ccccc3)CC2)cc1`, the MRT is 16.7 h, the Vd is 0.41 L/kg, the clearance was 0.4 mL/min/kg and the half-life was 9.8 h. The fraction unbound is 0.05.

`CNCc1ccc(-c2[nH]c3cc(F)cc4c3c2CCNC4=O)cc1`: the mean residence time MRT was 12.7 h, the Vd is 3.28 L/kg, the clearance is 4.31 mL/min/kg and the half-life is 16.6 h.

For the molecule `FC(F)(F)C(F)(F)C(F)(F)F`, the MRT was 0.05 h, the Vd is 1.6 L/kg, the clearance is 591 mL/min/kg and the half-life was 0.02 h.
